From patent US20210189342A1, “COMPOSITIONS AND METHODS FOR MODULATING MONOCYTE AND MACROPHAGE INFLAMMATORY PHENOTYPES AND IMMUNOTHERAPY USES THEREOF” (Verseau Therapeutics, Inc., priority 2018, published 2021)

Key:
[1] = test system: peripheral blood mononuclear cells (PBMCs); format: cell-based, human; details: SEB assay, 5 μg/ml, FIG. 5
dissociated tumors = assay: dissociated tumor assay; format: cell-based, human; details: 10 ug/mL, 24 or 48 hrs, FIG. 8
Text: One system used for this purpose was a dissociated tumor assay. Dissociated tumors contain all the various cell populations present in the tumor microenvironment, including, for example, tumor cells, immune cells, and support cells. These viable single cell suspensions are useful for many applications and allow for the normalization of cell number and composition within each replicate of an experiment. For performing dissociated tumor experiments upon acquisition of fresh tumor tissue (less than 24 hrs), surrounding fat, fibrous areas, and necrotic areas were removed from a tumor sample using scissors and scalpels. The tumor was cut into small pieces of 2-4 mm^3. The Tumor Dissociation Kit enzyme mix (MACS Miltenyi Biotec) was prepared according to the manufacturer's protocol. Tumor pieces and dissociation enzymes were transferred into 5 ml Snaplock Microcentrifuge tubes and the tissue was minced using a pair of straight scissors. Tubes were placed in a 37° C. shaker at 200-250 rpm for 45 minutes to 1 hour. At the end of the incubation time, the digested tumor was filtered through […] cell strainers into 50 mL Falcon™ conical centrifuge tubes. […] At the end of the study, cytokines/chemokines in the culture supernatant were measured using the Invitrogen™ Luminex™ Cytokine Human Magnetic 25-Plex Panel according to the manufacturer's instructions. […]

tumor tissue slices = assay: tumor tissue slice cultures; format: cell-based, human; details: 10 ug/mL
Text: A second system was used to further confirm the results of the dissociated tumor assays. Briefly, dissociated tumor assays have the advantage of being able to normalize the number of cells in every condition performed. They also have the potential downside of losing the tumor structure and non-cellular stromal components. […] Upon acquisition of fresh tumor tissue sample (less than 24 hrs), surrounding fat, fibrous, and necrotic areas were removed from the tumor sample as much as possible using scissors and scalpels. The tissue was embedded in the center of a tissue mold using 4% agarose. After solidifying, the agarose block was dislodged, and the mold was glued to a Leica VT1000 S microtome tissue holder and sectioned into 300 to 400 micron sections using the Leica VT1000 S microtome. […] At the end of the study, efficacy was evaluated by analyzing cytokine/chemokine amounts secreted into the culture supernatant measured using the Invitrogen™ Luminex™ Cytokine Human Magnetic 25-Plex Panel according to the manufacturer's instructions. […]

M2 macrophages [2] = assay: macrophage differentiation assay with antibodies, M1 and M2 markers; format: cell-based; details: primary human macrophages under M2 skewing; antibody on day 1, 3 and 7; FIG. 4
Text: Monocytes were differentiated in vitro to M1-like (Type 1) and/or M2-like (Type 2) phenotypes (Ries et a. (2014) Cancer Cell 25:846-859; Vogel et al. (2014) Immunobiol. 219:695-703). In order to differentiate monocytes into M1 versus M2 phenotypes monocytes were isolated from whole blood of healthy donors by Ficoll separation with RosetteSep™ Human Monocyte Enrichment Cocktail (Stemcell Technologies, Vancouver, Canada) according to the manufacturer's instructions. Isolated monocytes were arrayed in 24-well plates overnight in IMDM Media containing 10% fetal bovine serum and non-adherent cells were washed off after 24 hours. […] Expression of M1 and M2 macrophage markers and surface expressed targets was assessed by flow cytometry. […]
Labeled cells were washed twice with FACS buffer and fixed with PBS+2% paraformaldehyde for flow cytometry analysis on an Attune™ flow cytometer (ThermoFisher). Data were analyzed via FlowJo software. Morphology was assessed via microscopy.
Briefly, monocytes were isolated from whole blood of fresh donors by Ficoll separation with RosetteSep™ Human Monocyte Enrichment Cocktail (Stemcell Techhnologies, Vancouver Canada) according to the manufacturer's instructions. […] Cells were assessed for expression of M1 and M2 markers as described above and cell free supernatants were collected for analysis. […]

M2 macrophages [3] = assay: M2 macrophage polarization, antibodies added only during the last two days, cytokines; format: cell-based, human; details: 10 ug/mL (77, 78, 81-84 at 1 ug/mL), FIGS. 4D-4G
Procedure: Briefly, monocytes were isolated from whole blood of fresh donors by Ficoll separation with RosetteSep™ Human Monocyte Enrichment Cocktail (Stemcell Techhnologies, Vancouver Canada) according to the manufacturer's instructions. Isolated monocytes were arrayed in 24-well plates overnight in Iscove's Modified Dubelcos Media ([…]) (ThermoFisher) media containing 10% fetal bovine serum and non-adherent cells were washed off after 24 hours. Monocytes were differentiated into macrophages by culturing for 6 days in IMDM 10% FBS plus 50 ng/ml human M-CSF for M2 macrophages, or 50 ng/ml GM-CSF (Biolegend, San Diego, Calif.) for M1 macrophages. M1 macrophages were activated on day 6 with IFN-gamma and LPS, whereas M2 macrophages were polarized on day 6 with 20 ng/ml IL-10 and activated on day 7 with 100 ng/ml LPS. […] Cells were assessed for expression of M1 and M2 markers as described above and cell free supernatants were collected for analysis. Data are representative of at least 3-4 healthy donors.
Beyond phenotypic surface markers, M1 (such as Type 1) and M2 (such as Type 2) macrophages produce different cytokines and chemokines. For example, M1 macrophages produce more pro-inflammatory cytokines, including but not limited to, GM-CSF, IL-12, and TNF alpha, whereas M2 macrophages produce more pro-tumorigenic and immunosuppressive cytokines, such as VEGF, IL-10, and TGFb. […]

Molecule: pembrolizumab
- T cell activity (IFNg production) ([1]; donor 2): no increase in T cell activity
- T cell-specific response as indicated by IFNg production ([1]; donor 5): increase in T cell-specific response
- IFNg production (dissociated tumors): stimulating IFNg production
- IL-10 production (dissociated tumors): induces immunosuppressive IL-10
- cytokine response (tumor tissue slices; GI tumor, FIG. 9B): do not provide a response
- cytokine response (IFNg, TNFα) (tumor tissue slices; lung tumor, FIG. 9A): showed a response

B1: Ab 18: recombinant human IgG4 (S228P) chimera, lambda light chain; variable regions in Table 6 (antibody, V domains shown)
VH: EVQLLESGGGLVRPGGSLRLSCAASGFTFSSYAMSWVRQAPGKGLEWVSAISGSGGSTYYADSVKGRFTISRDNSKNTLYLQMNSLRAEDTAVYYCARDKRLTYWGQGTMVTVSS
VL: QSVVTQPPSVSAAPGQKVTISCSGSSSNIGNNYVSWYQQLPGTAPKLLIYDNNKRPSGIPDRFSGSKSGTSATLGITGLQTGDEADYYCGTWDSSLSARVFGGGTKVTVL
modifications: human IgG4 S228P constant regions
- effect on macrophage phenotypic marker sets (classical and novel biomarkers), reversal of skewing towards M2 (M2 macrophages [2]): dose-titratable effect
- polarization of M2 macrophages to a more M1-like state, increase in pro-inflammatory cytokines (M2 macrophages [3]): dramatically effect polarization of M2 macrophages to a more M1-like state

B2: Ab 8: recombinant human IgG4 (S228P) chimera, kappa light chain; variable regions in Table 6 (antibody, V domains shown)
VH: QVQLQQSGPGLVKPSQTLSLTCAISGDSVSSNIAAWHWIRLSPSRGLEWLGRTYYRRSKWNYDYALSVKSRININPDTSKNLFSLQLNSVTPEDTAVYYCTRGGGRAHSAWGQGTLVTVSS
VL: EIVLTQSPGTLSVSPGERATLSCRASQSVSRSHLAWYQQKPGQAPRLLIFGASSRATGIPDRFSGSGSGTDFTLTISRLEPEDFAVYYCQQYGRPGVTFGQGTKVEIK
modifications: human IgG4 S228P constant regions
- effect on macrophage phenotypic marker sets (classical and novel biomarkers), reversal of skewing towards M2 (M2 macrophages [2]): dose-titratable effect
- polarization of M2 macrophages to a more M1-like state, increase in pro-inflammatory cytokines (M2 macrophages [3]): dramatically effect polarization of M2 macrophages to a more M1-like state
